Source: ChEMBL document CHEMBL1144117, “Two new cytotoxic carbonimidic dichlorides from the nudibranch Reticulidia fungia” (J Nat Prod, 1999)
Values after ≈ are worked out from the molar mass of the structure shown.

Columns and labels:
KB = assay: Cytotoxicity against human KB cells after 72 hrs by MTT assay; type: functional, cell-based
L1210 = assay: Cytotoxicity against mouse L1210 cells after 72 hrs by MTT assay; type: functional, cell-based; settings: L1210, 72 h

Compound | IC50 (KB) [µg/mL] | IC50 (L1210) [µg/mL]
CC1(C)[C@@H](Cl)[C@H](O)C[C@]2(C)C=C(/C=C/N=C(Cl)Cl)CC[C@@H]12 [RETICULIDIN A] | 0.41 (≈ 1.17 µM) | 0.59 (≈ 1.68 µM)
CC1(C)[C@@H](Cl)[C@@H](O)C[C@]2(C)CC(/C=C/N=C(Cl)Cl)=CC[C@@H]12 [RETICULIDIN B] | 0.42 (≈ 1.2 µM) | 0.11 (≈ 0.314 µM)
